Assay [1] deals with Mycobacterium avium. The assay can be described thus: Antimycobacterial activity against Mycobacterium avium 2447 Smt infected in BALB/c mice BMDM assessed as bacterial growth inhibition at 10 uM after 5 days. Format: functional, organism-based.
Assay [2] concerns Mycobacterium avium. The assay can be described thus: Antimycobacterial activity against Mycobacterium avium 2447 Smt infected in BALB/c mice BMDM assessed as bacterial growth inhibition upto 20 uM after 5 days. Type of assay: functional, organism-based.

Activity calls are given as the source filed them. The calls are words filed in the database; no cut-off is given here.

With `Cc1cc(O)c(O)c(CNC(=O)CCC(CCC(=O)NCc2c(O)c(O)cc(C)[n+]2C)(CCC(=O)NCc2c(O)c(O)cc(C)[n+]2C)NC(=O)CCNC(=S)Nc2ccc(C(=O)O)c(-c3c4ccc(=[N+](C)C)cc-4oc4cc(N(C)C)ccc34)c2)[n+]1C`, the inhibition entry with Mycobacterium avium [1] and with Mycobacterium avium [2] was “Active” throughout.

These data come from ChEMBL document CHEMBL3779895, “Antimycobacterial activity of rhodamine 3,4-HPO iron chelators against Mycobacterium avium: analysis of the contribution of functional groups and of chelator's combination with ethambutol” (Medchemcomm, 2015).
